Values of other authors, collected in patent publication US6284845A, “Low temperature cure carboxyl terminated polyesters” (McWhorter Technologies, priority 1999, dated 2001).

How the values were obtained:
rabbit [1] = tested on: rabbit
rabbit [2] = tested on: rabbit; remark: listed apart in the source

| Structure (SMILES) | Primary skin irritation (rabbit [1]) | Primary eye irritation (rabbit [2]) | Acute oral toxicity LD50 (rat) [mg/kg] | Primary skin irritation (guinea pig) |
| --- | --- | --- | --- | --- |
| CC(O)CN(CC(C)O)C(=O)CCCCC(=O)N(CC(C)O)CC(C)O (stereo not drawn) [Primid QM-1260, N,N,N',N'-Tetrakis (2-hydroxypropyl) adipamide] | not irritating | not irritating | > 2000 | – |
| O=C(CCCCC(=O)N(CCO)CCO)N(CCO)CCO [Primid XL-552, N,N,N',N'-Tetrakis (2-hydroxyethyl) adipamide] | – | not irritating | > 5000 | not irritating |
